For assay [1], the target named is PIK3CG (human) (UniProt P48736). Kind of assay: Inhibition of PIK3CG Kinase Activity.
The target of assay [2] is PIK3CB (Human) (UniProt P42338). Kind of assay: Inhibition of PIK3CB Kinase Activity.
For assay [3], the target named is PIK3CD (Human) (UniProt O00329). Kind of assay: Inhibition of PIK3CD Kinase Activity.
The target is the same in assay [4]. Kind of assay: Cellular Inhibition of PIK3CD Kinase in Raji (Burkitt’s Lymphoma) Cells.
Assay [5] concerns the target PIK3CA (human) (UniProt P42336). Kind of assay: Cellular Inhibition of PIK3CA Kinase in MDA-MB-453 Cells.
Assay [6] deals with EGFR (human), P00533 [T790M]. The settings on record: h1975.
Assay [7] has as its target EGFR (UniProt P00533).
The target of assay [8] is CDK2 (human) (UniProt P24941). Kind of assay: Enzyme Assay.
Assay [9] addresses PIK3CB (Human) (UniProt P42338). Kind of assay: Enzyme Assay.
Assay [10] deals with PIK3CA (human) (UniProt P42336). Kind of assay: Enzyme Assay.
Assay [11] concerns the target PIK3CG (human) (UniProt P48736). Kind of assay: Enzyme Assay.
Assay [12] concerns the target CDK2 (human) (UniProt P24941). Kind of assay: Enzyme Assay. The source holds these as a separate data set.
Assay [13] deals with CDK2 (human) (UniProt P24941). Kind of assay: Enzyme Assay. This is another data set of the same source.
Assay [14] deals with EGFR (human) (UniProt P00533).
Assay [15] concerns the target EGFR (human) (UniProt P00533). The settings on record: geo.
For assay [16], the target named is EGFR (human) (UniProt P00533). The note with it: geo. This is another data set of the same source.
Assay [17] has as its target EGFR (human) (UniProt P00533). The source holds these as a separate data set.
In assay [18] the target is EGFR (human) (UniProt P00533). The note with it: pc-9.
The target of assay [19] is PIK3CA (human), P42336 [Assessment of Proliferation of NZOV9 Cells Expressing PIK3CA (Mutant) Kinase]. Kind of assay: Assessment of Proliferation of NZOV9 Cells Expressing PIK3CA (Mutant) Kinase.
Assay [20] concerns the target PIK3CA (human), P42336 [Wild-Type]. Kind of assay: Assessment of Proliferation of NZB5 Cells Expressing Wild-Type PIK3CA Kinase.
Assay [21] addresses PIK3CA (human), P42336 [H1047R]. Kind of assay: Assessment of PIK3CA(H1047R) Dependent Antiproliferative Activity in KPL-4 Cells.
Assay [22] addresses EGFR (human), P00533 [WT].
Assay [23] addresses EGFR (human), P00533 [WT]. This is another data set of the same source.
Assay [24] addresses MAPK14 (UniProt Q16539). Kind of assay: p38 Kinase Inhibition.
Assay [25] concerns MAPK14 (sprague-dawley rat). Kind of assay: p38-mediated TNF-alpha Inhibition (Sprauge-Dawley Rats). The settings on record: dose or concentration not given here.
For assay [26], the target named is MAPK14 (human) (UniProt Q16539). Kind of assay: p38-mediated TNF-alpha Inhibition (THP1 Cells).
Assay [27] concerns the target EGFR (human), P00533 [G719C]. The note with it: a375.
In assay [28] the target is MAPK14 (human) (UniProt Q16539). Kind of assay: Enzyme Assay.
The target of assay [29] is EGFR (human), P00533 [L861Q].
Assay [30] concerns the target EGFR (human), P00533 [E746-A750del]. The note with it: a375.
Assay [31] deals with EGFR (human), P00533 [L858R].
Assay [32] addresses EGFR (Hamster) (UniProt P00533). The settings on record: er22.
Assay [33] has as its target PIK3CD (Human), O00329 [Inhibition of PIK3CG Kinase Activity]. Kind of assay: Enzyme Assay.
Assay [34] addresses EGFR (human) (UniProt P00533). The source holds these as a separate data set.
In assay [35] the target is EGFR (Human), P00533 [T790M/L858R].

Experimental findings from the Kinase Knowledgebase extract (Sharma et al. 2016) are described below.

What is called IC50 is the concentration needed to halve the response being measured. A low value points to higher potency. For orientation: inhibition means the drop in the measured response relative to a control, in per cent. Lower therefore signals a weak effect. As a reminder, the Kd is the constant that tells how readily two partners part at equilibrium.

Sequence of EGFR (human) (P00533 whole entry, looked up): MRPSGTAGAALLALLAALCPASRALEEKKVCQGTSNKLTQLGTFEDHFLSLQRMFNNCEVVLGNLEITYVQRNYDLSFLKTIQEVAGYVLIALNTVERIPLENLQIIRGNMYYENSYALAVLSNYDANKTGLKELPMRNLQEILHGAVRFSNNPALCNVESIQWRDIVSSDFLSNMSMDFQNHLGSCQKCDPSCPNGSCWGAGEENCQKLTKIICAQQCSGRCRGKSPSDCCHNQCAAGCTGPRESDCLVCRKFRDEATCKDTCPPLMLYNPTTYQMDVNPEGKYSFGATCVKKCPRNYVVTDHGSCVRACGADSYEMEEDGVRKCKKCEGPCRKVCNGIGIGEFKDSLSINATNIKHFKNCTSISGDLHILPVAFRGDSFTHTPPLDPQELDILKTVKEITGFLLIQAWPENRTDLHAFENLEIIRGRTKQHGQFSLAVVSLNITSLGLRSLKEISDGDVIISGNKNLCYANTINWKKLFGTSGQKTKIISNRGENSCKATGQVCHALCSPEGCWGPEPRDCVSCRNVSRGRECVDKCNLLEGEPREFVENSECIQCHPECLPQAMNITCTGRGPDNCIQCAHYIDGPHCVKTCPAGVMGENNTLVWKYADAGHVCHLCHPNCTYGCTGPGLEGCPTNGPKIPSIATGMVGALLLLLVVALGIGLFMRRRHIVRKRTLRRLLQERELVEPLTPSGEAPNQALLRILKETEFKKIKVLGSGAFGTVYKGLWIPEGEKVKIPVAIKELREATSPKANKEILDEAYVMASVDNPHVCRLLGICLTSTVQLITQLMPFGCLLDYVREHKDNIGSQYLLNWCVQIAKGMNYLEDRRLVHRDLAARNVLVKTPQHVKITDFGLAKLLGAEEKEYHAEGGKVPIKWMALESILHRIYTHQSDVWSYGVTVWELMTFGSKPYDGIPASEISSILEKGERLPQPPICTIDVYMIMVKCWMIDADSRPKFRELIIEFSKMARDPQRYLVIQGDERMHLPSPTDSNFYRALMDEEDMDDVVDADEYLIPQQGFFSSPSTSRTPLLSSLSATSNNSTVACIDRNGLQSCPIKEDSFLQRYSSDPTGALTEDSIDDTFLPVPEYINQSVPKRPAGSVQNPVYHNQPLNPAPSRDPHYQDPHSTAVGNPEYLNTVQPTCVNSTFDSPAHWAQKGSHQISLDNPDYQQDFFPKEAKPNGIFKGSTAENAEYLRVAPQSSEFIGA
Sequence of EGFR (human), P00533 [WT] (P00533 whole entry, looked up): as above
Sequence of PIK3CB (Human) (P42338 whole entry, looked up): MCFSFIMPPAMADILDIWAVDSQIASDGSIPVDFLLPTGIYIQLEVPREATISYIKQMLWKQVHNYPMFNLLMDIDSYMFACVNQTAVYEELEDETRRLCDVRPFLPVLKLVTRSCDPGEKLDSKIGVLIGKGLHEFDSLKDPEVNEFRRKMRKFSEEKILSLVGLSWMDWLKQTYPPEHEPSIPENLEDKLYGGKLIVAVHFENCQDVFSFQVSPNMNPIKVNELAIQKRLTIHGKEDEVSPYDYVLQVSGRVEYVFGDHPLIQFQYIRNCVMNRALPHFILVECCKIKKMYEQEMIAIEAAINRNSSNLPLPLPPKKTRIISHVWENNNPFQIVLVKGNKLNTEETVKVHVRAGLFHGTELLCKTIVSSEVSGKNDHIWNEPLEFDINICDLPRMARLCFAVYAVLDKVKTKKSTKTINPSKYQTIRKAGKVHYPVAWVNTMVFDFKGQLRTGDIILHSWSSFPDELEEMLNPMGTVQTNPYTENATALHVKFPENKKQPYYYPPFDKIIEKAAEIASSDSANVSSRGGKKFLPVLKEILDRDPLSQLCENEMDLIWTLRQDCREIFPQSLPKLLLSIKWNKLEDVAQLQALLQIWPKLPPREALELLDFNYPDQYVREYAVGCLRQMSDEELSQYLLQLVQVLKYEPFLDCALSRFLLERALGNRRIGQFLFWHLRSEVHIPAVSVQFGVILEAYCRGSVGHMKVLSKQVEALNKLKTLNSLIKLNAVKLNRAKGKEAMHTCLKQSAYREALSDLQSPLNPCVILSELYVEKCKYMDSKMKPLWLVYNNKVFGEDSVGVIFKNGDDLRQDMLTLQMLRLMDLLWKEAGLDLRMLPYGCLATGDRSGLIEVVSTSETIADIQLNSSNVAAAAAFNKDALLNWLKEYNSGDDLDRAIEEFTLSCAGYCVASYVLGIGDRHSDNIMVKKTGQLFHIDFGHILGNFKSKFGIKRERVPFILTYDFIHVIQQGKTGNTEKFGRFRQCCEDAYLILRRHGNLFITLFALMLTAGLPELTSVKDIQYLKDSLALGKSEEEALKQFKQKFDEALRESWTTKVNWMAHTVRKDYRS
Sequence of MAPK14 (human) (Q16539 whole entry, looked up): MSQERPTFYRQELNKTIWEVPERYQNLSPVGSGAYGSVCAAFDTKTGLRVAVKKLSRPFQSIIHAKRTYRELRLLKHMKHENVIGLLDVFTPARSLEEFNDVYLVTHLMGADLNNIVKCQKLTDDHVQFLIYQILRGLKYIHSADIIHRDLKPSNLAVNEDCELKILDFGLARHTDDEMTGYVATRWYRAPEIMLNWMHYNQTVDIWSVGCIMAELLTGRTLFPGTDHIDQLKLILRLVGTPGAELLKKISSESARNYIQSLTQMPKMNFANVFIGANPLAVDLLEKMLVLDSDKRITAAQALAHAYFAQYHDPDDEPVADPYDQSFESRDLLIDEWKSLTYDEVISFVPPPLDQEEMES
Sequence of PIK3CD (Human) (O00329 whole entry, looked up): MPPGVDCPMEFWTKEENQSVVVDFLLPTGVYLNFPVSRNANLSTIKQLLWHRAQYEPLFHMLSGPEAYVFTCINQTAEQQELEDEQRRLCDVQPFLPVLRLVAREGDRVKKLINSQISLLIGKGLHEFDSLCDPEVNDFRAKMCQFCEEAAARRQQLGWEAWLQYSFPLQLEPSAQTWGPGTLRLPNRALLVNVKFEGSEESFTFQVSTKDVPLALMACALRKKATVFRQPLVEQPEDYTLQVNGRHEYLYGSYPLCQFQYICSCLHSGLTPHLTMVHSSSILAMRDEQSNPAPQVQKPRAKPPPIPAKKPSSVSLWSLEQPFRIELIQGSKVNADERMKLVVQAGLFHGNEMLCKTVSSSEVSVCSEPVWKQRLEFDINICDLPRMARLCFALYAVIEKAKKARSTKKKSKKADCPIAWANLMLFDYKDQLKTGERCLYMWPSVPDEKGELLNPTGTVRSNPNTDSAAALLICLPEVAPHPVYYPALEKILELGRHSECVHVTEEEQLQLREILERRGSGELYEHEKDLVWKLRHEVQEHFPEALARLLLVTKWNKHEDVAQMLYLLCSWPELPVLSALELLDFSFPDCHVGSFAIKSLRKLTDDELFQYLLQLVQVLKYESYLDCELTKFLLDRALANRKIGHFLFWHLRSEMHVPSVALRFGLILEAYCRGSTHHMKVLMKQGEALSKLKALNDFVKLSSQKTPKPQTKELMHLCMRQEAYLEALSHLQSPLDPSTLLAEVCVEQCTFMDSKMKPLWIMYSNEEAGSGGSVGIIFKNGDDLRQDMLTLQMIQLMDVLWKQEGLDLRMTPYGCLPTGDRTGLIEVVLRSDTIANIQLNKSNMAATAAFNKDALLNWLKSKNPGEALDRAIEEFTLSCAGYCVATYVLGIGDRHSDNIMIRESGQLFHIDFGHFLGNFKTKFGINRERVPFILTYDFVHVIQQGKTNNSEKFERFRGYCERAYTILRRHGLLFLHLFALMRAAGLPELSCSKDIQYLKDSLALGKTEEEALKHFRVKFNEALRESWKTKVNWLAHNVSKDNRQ
Sequence of MAPK14 (Q16539 whole entry, looked up): as the sequence (Q16539 whole entry, looked up) above
Sequence of PIK3CD (Human), O00329 [Inhibition of PIK3CG Kinase Activity] (O00329 whole entry, looked up, change not shown): as the sequence (O00329 whole entry, looked up) above

For the compound `CC(C)(Cc1ccccc1Br)Nc1nc(N2CCOCC2)nc(-n2c(C(F)F)nc3ccccc32)n1`, the 50% inhibitory concentration (IC50) in assay [1] was 200 to 500 nM; in assay [2], less than 100 nM; in assay [3], less than 100 nM; in [4] it was less than 100 nM.

The compound `CC(C)(Cc1ccccc1C1CCN(S(C)(=O)=O)CC1)Nc1nc(N2CCOCC2)nc(-n2c(C(F)F)nc3ccccc32)n1` gave a 50% inhibitory concentration (IC50) in assay [5] of 200 to 500 nM.

Compound `O=C(CCN1CCOCC1)Nc1ccc2ncnc(Nc3cccc(Br)c3)c2c1` gave an IC50 in assay [6] of more than 20000 nM.

Consider `CO[C@H]1[C@@H](N(C)C2C=NC=CN2)C[C@@H]2O[C@@]1(C)n1c3ccccc3c3c4c(c5c6ccccc6n2c5c31)C(=O)NC4` (stereo not given in full), for which the half-inhibitory concentration (IC50) in [7] came out at 8180 nM.

As for `CN1CCN(c2ccc(Nc3ncc4cc(C#N)c(=O)n(C5CCCC5)c4n3)cc2)CC1`, the concentration for half-maximal inhibition (IC50) in [8] came to 97.3 nM; in assay [9] it was 759 nM; in assay [10], 1060 nM; in assay [11], 1120 nM; in [12], 1350 nM; in [13] it was 770 nM.

Regarding `Cc1c(NC(=O)OC[C@@H]2COCCN2)cn2ncnc(Nc3ccc4c(cnn4Cc4cccc(F)c4)c3)c12`, the 50% inhibitory concentration (IC50) stood at 22 nM in assay [14]; 750 nM in assay [15]; 900 nM in assay [16]; 20 nM in assay [17]; 340 nM in assay [18].

On to `N#Cc1cccc2c1nc(C(F)F)n2-c1nc(N2CCOCC2)nc(N2CCOCC2)n1`, for which the half-maximal inhibitory concentration (IC50) in assay [19] and in [20] was more than 20000 nM each time.

In assay [21], `Oc1cccc(-c2nc(N3CCOCC3)nc3c2CCN3c2cccnc2)c1` yielded an IC50 of 450 nM.

For the compound `COc1cccc(Nc2ccnc(Nc3cccc(OC)c3)n2)c1`, the IC50 in [22] was determined as 7700 nM.

In the case of `CN1CCN([C@H]2CC[C@H](n3nc(-c4ccc(Nc5nc6cccc(Cl)c6o5)cc4)c4c(N)ncnc43)CC2)CC1`, the IC50 in assay [23] was 2 nM.

With `Nc1c(C(=O)c2cccc(NC=NO)c2)cnn1-c1ccc(F)cc1`, the IC50 was found to be 1450 nM in assay [24] and 170 nM in assay [26]. This compound also displayed an inhibition in assay [25] of 76%.

On to `CN(C)C/C=C/C(=O)Nc1cccc(C(=O)Nc2ccc(Nc3nccc(-c4c(-c5ccccc5)nn5ccccc45)n3)cc2)c1`, for which the dissociation constant Kd in assay [27] stood at 2.6 nM; in assay [30], 7 nM. For the same compound, the concentration for half-maximal inhibition (IC50) in assay [28] worked out at 63 nM; in assay [29] it was 21 nM; in [31] it was 24.9 nM.

The compound `COC(=O)c1cc(NCc2cc(O)ccc2O)ccc1O` yielded an IC50 in assay [32] of 9000 nM.

As for `CCN1CCN(CC(=O)Nc2ccc(-c3cccc4c(=O)cc(N5CCOCC5)oc34)c3sc4ccccc4c23)CC1`, the concentration for half-maximal inhibition (IC50) in assay [33] is less than 1 nM.

`O=C(NCCN1CCCC1)c1cc2n(c1)CCc1c(NC(=O)c3ccccc3Cl)n[nH]c1-2`: the half-inhibitory concentration (IC50) in assay [34] came to 7870 nM.

In the case of `C=CC(=O)Nc1cccc(N2C(=O)N(Cc3ccccc3)Cc3cnc(Nc4ccc(N5CCN(C)CC5)cc4OC)nc32)c1`, the IC50 in assay [35] was found to be 0.7 nM. This lies in the sub-nanomolar range.
